This is an account of results in ChEMBL document CHEMBL1146812 (Bioorg Med Chem Lett, 2004).

Each structure is given as a SMILES string.

The target of experiment [1] is T1, Melatonin receptor type 1B (Homo sapiens, UniProt P49286).
T1 sequence (P49286 whole entry): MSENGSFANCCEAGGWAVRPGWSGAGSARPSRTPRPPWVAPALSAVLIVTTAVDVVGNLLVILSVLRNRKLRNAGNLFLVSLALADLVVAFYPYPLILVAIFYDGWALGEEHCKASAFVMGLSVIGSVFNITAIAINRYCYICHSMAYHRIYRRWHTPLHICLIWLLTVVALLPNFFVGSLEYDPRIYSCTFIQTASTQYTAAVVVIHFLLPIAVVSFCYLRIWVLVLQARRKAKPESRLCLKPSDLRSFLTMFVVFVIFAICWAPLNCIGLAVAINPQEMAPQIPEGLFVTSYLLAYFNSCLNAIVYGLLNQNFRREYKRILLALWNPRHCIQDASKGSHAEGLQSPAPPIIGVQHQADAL
The experiment in a line: Binding affinity against human Melatonin receptor type 1B by using 2-[125I]iodomelatonin as radioligand.

Experiment [2] deals with Melatonin receptor type 1A (Homo sapiens, UniProt P48039). The experiment in a line: Binding affinity against human Melatonin receptor type 1A by using 2-[125I]iodomelatonin as radioligand.
Experiment [3] addresses Melatonin receptor type 1B (Homo sapiens) (UniProt P49286). The experiment in a line: Agonist activity for its ability to inhibit forskolin-stimulated cAMP accumulation against MT2 receptor.
Experiment [4] shares this target. Briefly: Intrinsic activity against human melatonin receptor (MT).
Experiment [5] concerns the target T2, Melatonin receptor (Homo sapiens, UniProt P48039+P49286). The experiment in a line: Intrinsic activity against human melatonin receptor (MT). The format is protein assay.
In experiment [6] the target is T2, Melatonin receptor. Briefly: Agonist activity for its ability to inhibit forskolin-stimulated cAMP accumulation against MT1 receptor. The format is functional. In general terms: Changes in cAMP serve as a functional read-out for many G protein-coupled receptors.

Sequence of Melatonin receptor type 1A (P48039 whole entry): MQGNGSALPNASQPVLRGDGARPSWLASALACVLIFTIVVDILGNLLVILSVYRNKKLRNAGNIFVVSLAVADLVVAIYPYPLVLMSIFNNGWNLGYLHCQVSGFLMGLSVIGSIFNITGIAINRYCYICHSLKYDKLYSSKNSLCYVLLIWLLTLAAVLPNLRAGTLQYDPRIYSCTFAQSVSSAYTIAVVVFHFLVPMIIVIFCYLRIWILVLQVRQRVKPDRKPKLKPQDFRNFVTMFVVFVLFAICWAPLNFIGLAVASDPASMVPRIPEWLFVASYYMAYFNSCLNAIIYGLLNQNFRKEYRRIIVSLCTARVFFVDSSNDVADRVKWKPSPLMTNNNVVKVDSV
T2 sequence (P48039 whole entry, looked up, one chain of several): as the sequence (P48039 whole entry) above

As a reminder, the Ki is the dissociation constant of the complex between target and ligand, obtained from inhibition or displacement. Read a low Ki as higher affinity. With `CCNC(=O)NCCCc1cccc2nc(CC)oc12`, the Ki in experiment [1] was determined as 0.012 µM; in experiment [2], 0.075 µM.

As to `CCCc1nc2cccc(CCCNC(C)=O)c2o1`, the Ki in experiment [1] came out at 0.035 µM; in experiment [2], 0.183 µM.

Regarding `CCCc1nc2cccc(CCCNC(=O)C(C)C)c2o1`, the Ki in experiment [1] came out at 0.029 µM; in experiment [2] it was 0.06 µM.

Regarding `CC(C)C(=O)NCCCc1cccc2nc(CCCCc3ccccc3)oc12`, the inhibition constant (Ki) in experiment [1] worked out at 0.018 µM; in experiment [2], 0.0013 µM.

On to `CC(C)c1nc2cccc(CCCNC(=O)C3CC3)c2o1`, for which the inhibitory constant (Ki) in experiment [1] came out at 0.114 µM; in experiment [2], 0.034 µM.

As to `O=C(NCCCc1cccc2nc(-c3ccccc3)oc12)C1CC1`, the Ki turned out to be 0.038 µM in experiment [1] and 0.023 µM in experiment [2].

As a reminder, the EC50 is the midpoint of the concentration-response curve. A low value points to higher potency in that assay. Regarding `Cc1nc2cccc(CCCNC(=O)C3CC3)c2o1`, the midpoint of the response in experiment [3], the EC50, lay at 0.00074 µM. Moreover, in experiment [4], the Activity is 0.96. For the same compound, the Ki in experiment [1] came out at 0.0027 µM; in experiment [2], 0.0007 µM.

On to `CCCc1nc2cccc(CCCNC(=O)CC)c2o1`, for which the results for the inhibition constant Ki in experiment [1] and in experiment [2] were 0.027 µM and 0.051 µM, respectively.

As to `CCCC(=O)NCCCc1cccc2nc(-c3ccccc3)oc12`, the Ki was 0.017 µM in experiment [1] and 0.06 µM in experiment [2].

With `CCC(=O)NCCCc1cccc2ncoc12`, the Ki worked out at 0.0018 µM in experiment [1] and 0.0066 µM in experiment [2].

In the case of `CCCc1nc2cccc(CCCNC(=O)NCC)c2o1`, the Ki in experiment [1] was found to be 0.036 µM; in experiment [2], 0.492 µM.

As for `CCC(=O)NCCCc1cccc2nc(C(C)C)oc12`, the inhibition constant (Ki) in experiment [1] amounted to 0.015 µM; in experiment [2], 0.142 µM.

As to `CCCC(=O)NCCCc1cccc2nc(C(C)C)oc12`, the inhibition constant Ki in experiment [1] stood at 0.016 µM; in experiment [2], 0.119 µM.

For the compound `CC(C)C(=O)NCCCc1cccc2nc(-c3ccccc3)oc12`, the inhibition constant (Ki) in experiment [1] stood at 0.057 µM; in experiment [2], 0.087 µM.

Take `Cc1nc2cccc(CCCNC(=O)C(C)C)c2o1`: the Ki in experiment [1] is 0.0023 µM; in experiment [2], 0.003 µM.

For the compound `CCNC(=O)NCCCc1cccc2nc(C(C)C)oc12`, the inhibition constant (Ki) in experiment [1] turned out to be 0.052 µM; in experiment [2] it was 0.194 µM.

Regarding `CC(C)C(=O)NCCCc1cccc2nc(C(C)C)oc12`, the values for the Ki in experiment [1] and in experiment [2] were 0.088 µM and 0.04 µM, respectively.

As to `CCNC(=O)NCCCc1cccc2nc(C)oc12`, the Ki in experiment [1] is 0.026 µM; in experiment [2] it was 0.05 µM.

On to `CC(=O)NCCCc1cccc2nc(C(C)C)oc12`, for which the Ki in experiment [1] worked out at 0.035 µM; in experiment [2] it was 0.116 µM.

On to `CCCC(=O)NCCCc1cccc2nc(CC)oc12`, for which the values for the Ki in experiment [1] and in experiment [2] were 0.001 µM and 0.0081 µM, respectively.

On to `CCCC(=O)NCCCc1cccc2nc(C)oc12`, for which the inhibitory constant (Ki) was 0.0022 µM in experiment [1] and 0.0023 µM in experiment [2].

Regarding `CC(=O)NCCCc1cccc2ncoc12`, the inhibition constant Ki in experiment [1] was 0.0043 µM; in experiment [2], 0.03 µM.

Turning to `CCCC(=O)NCCCc1cccc2ncoc12`, the figures for the Ki in experiment [1] and in experiment [2] were 0.0037 µM and 0.0099 µM, respectively.

In the case of `O=C(NCCCc1cccc2nc(CCCCc3ccccc3)oc12)C1CC1`, the inhibition constant Ki is 0.022 µM in experiment [1] and 0.00063 µM in experiment [2].

For `CCC(=O)NCCCc1cccc2nc(CC)oc12`, the Ki in experiment [1] was found to be 0.001 µM; in experiment [2], 0.0035 µM.

Turning to `CC(=O)NCCCc1cccc2nc(CCCCc3ccccc3)oc12`, the inhibitory constant (Ki) in experiment [1] turned out to be 0.016 µM; in experiment [2], 0.0013 µM.

On to `CC(=O)NCCCc1cccc2nc(-c3ccccc3)oc12`, for which the inhibition constant Ki is 0.089 µM in experiment [1] and 0.04 µM in experiment [2].

Turning to `CCC(=O)NCCCc1cccc2nc(CCCCc3ccccc3)oc12`, the inhibition constant (Ki) is 0.014 µM in experiment [1] and 0.00076 µM in experiment [2].

As for `CCc1nc2cccc(CCCNC(=O)C(C)C)c2o1`, the inhibitory constant (Ki) amounted to 0.0045 µM in experiment [1] and 0.0132 µM in experiment [2].

For the compound `CCc1nc2cccc(CCCNC(C)=O)c2o1`, the Ki was determined as 0.0023 µM in experiment [1] and 0.009 µM in experiment [2].

In the case of `CCCC(=O)NCCCc1cccc2nc(CCC)oc12`, the values for the inhibition constant (Ki) in experiment [1] and in experiment [2] were 0.022 µM and 0.166 µM, respectively.

`CCNC(=O)NCCCc1cccc2nc(-c3ccccc3)oc12`: the values for the Ki in experiment [1] and in experiment [2] were 0.061 µM and 0.34 µM, respectively.

`CC(=O)NCCCc1cccc2nc(C)oc12`: the inhibition constant (Ki) is 0.0053 µM in experiment [1] and 0.024 µM in experiment [2].

Turning to `CCC(=O)NCCCc1cccc2nc(C)oc12`, the Activity on Melatonin receptor [5] amounted to 0.98. On Melatonin receptor [6], this compound yielded an EC50 of 0.00026 µM. Besides, the Ki in experiment [1] and in experiment [2] was 0.0028 µM each time.

Consider `CCCC(=O)NCCCc1cccc2nc(CCCCc3ccccc3)oc12`, for which the inhibitory constant (Ki) in experiment [1] stood at 0.029 µM; in experiment [2] it was 0.0033 µM.

As to `CCc1nc2cccc(CCCNC(=O)C3CC3)c2o1`, the inhibition constant Ki in experiment [1] was determined as 0.0047 µM; in experiment [2], 0.0045 µM.

For the compound `CCCc1nc2cccc(CCCNC(=O)C3CC3)c2o1`, the Ki in experiment [1] stood at 0.0076 µM; in experiment [2], 0.044 µM.

In the case of `CCC(=O)NCCCc1cccc2nc(-c3ccccc3)oc12`, the Ki in experiment [1] was 0.01 µM; in experiment [2], 0.0131 µM.
